The values that follow come from patent US20110039763A1, “TARGETED ANTIMICROBIAL MOIETIES” (C3 JIAN, INC., priority 2009, published 2011).

Peptide text beside a SMILES is read from it.

In test [1] the test system is S. mutans. Put plainly: Post-antibiotic effect assay, S. mutans. The class given is cell-based, Streptococcus mutans. As to conditions: S. mutans monoculture; peptide 10 min, then fresh medium; FIG. 17A. Here is the method: (§1) The activity and selectivity of MH-STAMPs after a 10 min incubation was determined by growth retardation experiments against targeted and untargeted bacteria in monocultures, as described previously (Id.). Cells from overnight cultures were diluted to ˜5×10^6 cfu/mL in MH (or TH with 1% sucrose for S. mutans), normalized by OD600 0.05-0.1 and seeded to 96-well plates. Cultures were then grown under the appropriate conditions for 2 h (3 h for S. mutans) prior to the addition of peptides for 10 min. Plates were then centrifuged at 3000×g for 5 min, the supernatants discarded, fresh medium returned (MH or TH without sucrose for S. mutans), and incubation resumed. Bacterial growth after treatment was then monitored over time by OD600.
(§2) MH-STAMP antimicrobial kinetics was ascertained utilizing a variation of the classical post-antibiotic effect assay, which measures the ability of an agent to affect an organism's growth after a short exposure period. Monocultures of MH-STAMP-targeted and untargeted organisms were exposed to M8(KH)-20, M8(BL)-20, BL(KH)-20, or unmodified BD2.20, then allowed to recover. […] Furthermore, replacement of the targeting region with a non-binding peptide abolishes specific activity.

In test [2] the test system is Mixed planktonic populations of P. aeruginosa, E. coli, S. epidermidis, and S. mutans. Put plainly: Microbial population shift assay. As to conditions: mixed culture, 10 μM peptide, 24 h, detection limit 200 cfu/mL, FIG. 18. The class given is cell-based. Here is the method:
Peptide (10 μM) or mock-treatment (1×PBS) was then added and samples were incubated at 37° C. for 24 h under anaerobic conditions (80% N2, 15% CO2, 5% H2). […] Plates were then incubated 37° C. under aerobic conditions (TH plates were incubated anaerobically) and colonies counted after 24 h to determine survivors. […] Gram stains and direct microscopic observation (from select isolated colonies) were undertaken to confirm species identity (data not shown). The detection limit of the assay was 200 cfu/mL.
We hypothesized that potential MH-STAMP dual-functionality could affect a particular set of bacteria within a mixed population, thereby promoting the outgrowth of non-targeted organisms and “shifting” the constituent makeup. To examine this possibility, defined mixed populations of planktonic cells were treated continuously and the make-up of the community examined after 24 h.

Test [3] deals with E. coli. Description: Post-antibiotic effect assay, E. coli. The test is classed as cell-based, Escherichia coli. The note with it: E. coli monoculture; peptide 10 min, then fresh medium; FIG. 17E. Here is the method: as §1, §2
In test [4] the test system is S. epidermidis. Put plainly: Post-antibiotic effect assay, S. epidermidis. As to conditions: S. epidermidis monoculture; peptide 10 min, then fresh medium; FIG. 17C. The class given is cell-based, Staphylococcus epidermidis. Here is the method: as §1, §2
Test [5] relates to P. aeruginosa. Description: Post-antibiotic effect assay, P. aeruginosa. The class given is cell-based, Pseudomonas aeruginosa. The note with it: P. aeruginosa monoculture; peptide 10 min, then fresh medium; FIG. 17B. Here is the method: as §1, §2
Test [6] deals with S. aureus. Description: Post-antibiotic effect assay, S. aureus. The test is classed as cell-based, Staphylococcus aureus. As to conditions: S. aureus monoculture; peptide 10 min, then fresh medium; FIG. 17D. Here is the method: as §1, §2
The test system of test [7] is mixed biofilms of S. oralis, S. gordonii, S. mitis, S. sanguinis, S. salivarius, and S. mutans JM11. Put plainly: Photodynamic antimicrobial assay, multispecies biofilm. The class given is cell-based. Here is the method:
To gauge C16-RB selectivity for S. mutans, similar assays were conducted against multispecies biofilms. Mixed biofilms were seeded by diluting (1:5000) a mixture of equal parts S. oralis, S. gordonii, S. mitis, S. sanguinis, S. salivarius, and S. mutans JM11 (made from overnight cultures) into TH with 1% sucrose, 1% glucose, and 1% mannose. Biofilms were incubated and treated as described above with the addition of vitamin C or potassium gluconate. After the addition of agent and 5 min incubation, biofilms were washed 1× with 1×PBS prior to light exposure. After PDT and biofilm disruption, survivors were plated on TH, and TH supplemented with 800 μg/mL spectinomycin, which allowed for quantitation of surviving total oral streptococci and surviving S. mutans, respectively.
C16-RB was next evaluated for selectivity in mixed cultures containing S. mutans and non-cariogenic oral streptococci that compete for the same niche on the tooth surface. We utilized mixed biofilms of S. mutans transformed with spectinomycin resistance (strain JM11, Merritt, et al., 2005), plus S. oralis, S. gordonii, S. mitis, S. sanguinis, and S. salivarius. The mixed cultures were grown 24 and then treated with RB or C16-RB as indicated, plus potassium gluconate to minimize killing of untargeted bacteria by reducing the superoxide-producing activity of the free C16-RB not bound to S. mutans. […]

Test [8] deals with S. mutans UA140 biofilms. Description: Photodynamic antimicrobial assay, single-species biofilm. The class given is cell-based, Streptococcus mutans. As to conditions: 24 h S. mutans biofilm; 5 μM, no light. Here is the method:
To evaluate C16-RB against monoculture biofilms, S. mutans UA140 was grown overnight in TH prior to inoculation for biofilm formation. For biofilms, 1:5000 dilution of overnight culture was made into TH with 1% sucrose in 2 mL centrifuge tubes (200 μL volume) and grown 24 h under anaerobic conditions. After incubation, biofilms were treated for 5 min with 5 or 25 μM C16-RB or 5 μM RB in 1×PBS, or PBS alone, followed by removal of supernatant and exposure to 5 min blue light (emission 400-550 nm, power 400 mW/cm^2) from an Astralis 7 (Ivoclar Vivodent, Austria) handheld LED commonly used as a dental curing light. The light source was suspended 4 cm from the tube bottom (even with the mouth of the tube). A duplicate set of samples were left covered to serve as dark controls. After treatment, biofilms were mechanically disrupted and plated to determine cfu/mL.
After synthesis, the basic photosensitization potential of C16-RB was assessed by challenging mature single-species S. mutans biofilms (grown 24 h) with C16-RB or unmodified RB, followed by blue emission from a dental curing light.

The test system of test [9] is BHK-21 (ATCC CRL-10) fibroblasts. Put plainly: Cytotoxicity (Promega CellTiterGlo assay). The class given is cell-based, hamster. Here is the method: Streptococcus oralis ATCC 10557, Streptococcus gordonii (Challis), Streptococcus sanguinis (NY101), Streptococcus mitis ATCC 903, Streptococcus salivarius ATCC 13419 and S. mutans wild-type UA140 and JM11 (spectinomycin-resistant) strains were grown in Todd-Hewitt (TH) broth 37° C. in an anaerobic atmosphere of 80% N2, 10% CO2, and 10% H2. BHK-21 (ATCC CRL-10) fibroblasts were propagated in DMEM with 10% FBS, 1 mM sodium pyruvate, 100 units/mL penicillin G, and 100 μg/mL streptomycin at 37° C. with 5% CO2. Cells were detached with 0.25% trypsin and subcultured as recommended by the supplier.
The effect of RB and C16-RB on human fibroblasts was ascertained by utilizing the Promega CellTiterGlo assay, as described by the manufacturer. Briefly, fibroblasts were grown to confluence, detached, and seeded to 5,000 cells per well in a 96-well opaque walled, clear bottom 96-well plate (Nunc International). For long-term dark toxicity, cells were allowed to attach to for 18 h before the culture medium was replaced with medium plus serially-diluted RB or C16-RB (200 μM to 390 nM) or medium alone. After 18-24 h, equal volume Cell Titer Glo reagent was added to each well and mixed. Luciferace activity was then quantified to measure cell viability (Varian Fluorometer in Biolumenescence mode). To measure cytotoxicity after RB or C16-RB light exposure, cells were seeded at ˜10,000 cells per well and allowed to attach for 4 h. Cell growth medium was then replaced with RB or C16-RB containing medium, prior to exposure (a single well at a time) with blue light (400 mW/cm^2) suspended ˜3 cm from the well bottom. After exposure, cultures were disrupted with Cell Titer Glo and luciferase activity quantitated as above.
In general terms: In ATP-based viability assays light output follows the ATP content of the culture.

Test [10] concerns S. epidermidis. Put plainly: MIC test (broth microdilution) / antimicrobial activity, S. epidermidis. The test is classed as cell-based, Staphylococcus epidermidis. As to conditions: S. epidermidis. Here is the method: (§3) The active AMPs, STAMPs and the like can be identified and/or validated using an in vitro screening assay.
(§4) It will be appreciated that other assays as are well known in the art or that will become apparent to those having skill in the art upon review of this disclosure may also be used to identify active AMPs. Such assays include, for example, the assay described in Lehrer et al. (1988) J. Immunol.
(§5) Peptides were evaluated for basic antimicrobial activity by broth microdilution, as described previously (Eckert et al. (2006) Antimicrob Agents Chemother., 50: 3651-3657; Eckert et al. (2006) Antimicrob Agents Chemother., 50: 1480-1488). Briefly, ˜1×10^5 cfu/mL bacteria were diluted in TH (S. mutans), or Mueller-Hinton (MH) broth (all other organisms) and distributed to 96-well plates. Serially-diluted (2-fold) peptides were then added and the plates incubated at 37° C. for 18-24 h. […] All experiments were conducted 10 times.
In general terms: Broth dilution looks for growth in wells or tubes with falling amounts of substance.

The subject of test [11] is MRSA. Description: MIC test / antimicrobial activity, MRSA. The class given is cell-based, Methicillin-resistant Staphylococcus aureus. Here is the method:
as §3, §4, §5

In test [12] the test system is B. subtilis. Put plainly: MIC test / antimicrobial activity, B. subtilis. The class given is cell-based, Bacillus subtilis. The note with it: B. subtilis. In short, it runs like this: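 Broth microdilution with ~1×10^5 cfu/mL organisms in TH broth (S. mutans) or Mueller-Hinton broth (other organisms). Peptides added as 2-fold serial dilutions, then incubated 18-24 h at 37° C. Experiments run 10 times.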

The subject of test [13] is T. rubrum. Description: MIC test / antimicrobial activity, T. rubrum. The test is classed as cell-based, Trichophyton rubrum. Here is the method: as §3, §4, §5
The test system of test [14] is A. niger. Put plainly: MIC test / antimicrobial activity, A. niger. The test is classed as cell-based, Aspergillus niger. Here is the method: as §3, §4, §5
The subject of test [15] is E. faecalis. Description: MIC test / antimicrobial activity, E. faecalis. The test is classed as cell-based, Enterococcus faecalis. Here is the method: as §3, §4, §5
Test [16] concerns C. albicans. Description: MIC test / antimicrobial activity, C. albicans. The test is classed as cell-based, Candida albicans. Here is the method:
as §3, §4, §5

In test [17] the test system is microorganisms. Put plainly: Peptide activities: targeting/binding, antimicrobial, growth or phenotype altering (Tables 7, 8). The class given is cell-based. The note with it: peptides having multiple activities.
In test [18] the test system is microorganisms. Description: Morphology, biofilm and growth disrupting peptides (Table 5). The arrangement: key: A: Peptide aggregates; B: Less hyphal formation; Clumps; Diffuse clumps and small polyps; F: Diffuse growth; H: Thin; I: Growth inhibition; Microcolony formation; Rippled; Small polyps; Thick; W: Halo formation on top, microlonies on bottom. The test is classed as cell-based. The text has this:
In certain embodiments peptides that induce alterations in phenotype or other biological activities can also be used as antimicrobial effector moieties.

`CC[C@H](C)[C@H](NC(=O)[C@@H](N)Cc1ccccc1)C(=O)N[C@@H](CCCNC(=N)N)C(=O)N[C@@H](CCCCN)C(=O)N[C@@H](Cc1ccccc1)C(=O)N[C@@H](CC(C)C)C(=O)N[C@@H](CCCCN)C(=O)N[C@@H](CCCCN)C(=O)N[C@@H](Cc1c[nH]c2ccccc12)C(=O)N[C@@H](CC(C)C)C(=O)N[C@@H](CC(C)C)C(N)=O` [BD2.20] (H-FIRKFLKKWLL-NH2; N-terminus assumed): the “growth after treatment (culture recovery, OD600)” value in [1] was “robust antimicrobial activity”; in [3], “inhibited”; in [4], “inhibited”; in test [5] it was “robust antimicrobial activity”; in test [6] it was “inhibited”. Besides, the “surviving P. aeruginosa” value in test [2] (input ~0.5×10^4 cfu/mL) is reported as “significant loss of recoverable cfu/mL”. Moreover, the “surviving E. coli” value in test [2] (input ~2×10^4 cfu/mL) is “significant loss of recoverable cfu/mL”. Further, the “surviving S. epidermidis” value in [2] (input ~2×10^4 cfu/mL) is on record as “significant loss of recoverable cfu/mL”. The “surviving S. mutans” value in test [2] (input ~6×10^4 cfu/mL) is given as “significant loss of recoverable cfu/mL”.
For orientation: IC50 means the concentration needed to halve the response being measured. Regarding `O=C1OC2(c3cc(I)c(O)c(I)c3Oc3c2cc(I)c(O)c3I)c2c(Cl)c(Cl)c(Cl)c(Cl)c21` [RB, rose bengal], in test [7] (blue light illumination, FIG. 22), the “selectivity of photodynamic antimicrobial activity” value is on record as “strong indiscriminant photodynamic antimicrobial effects”. Moreover, the “ratio of surviving S. mutans:non-cariogenic streptococci cfu” value in test [7] (potassium gluconate, blue light) is ~1. Also, the “decrease in cfu/mL, dark control” value in [8] was “appreciable decreases in cfu/mL were not observed”. Moreover, the IC50 in test [9] (5 min w/blue light) was 40 µM; in test [9] (24 h dark) it was 90 µM. Moreover, the “IC50 (μM) BHK” value in [9] (5 min w/blue light) was “light-dependent toxicity”.
For the compound MRFGSLALVAYDSAIKHSWPRPSSVRRLRM [PF-672], the “Organism MIC (μM)” value in test [10] is “S. epidermidis, 0.39 μM”; in test [11], “MRSA, 1.56 μM”; in test [12], “B. subtilis, 0.78 μM”; in test [13], “T. rubrum, 0.78 μM”; in [14], “A. niger, 3 μM”; in test [15], “E. faecalis, 3.13 μM”. In test [16], the “Organism MIC (μM)” value was “C. albicans, 1.56 μM”. Besides, in test [17], the Activities result is given as “G B M”. Further, the “Organism, effect” value in test [18] (B. subtilis) is “B. subtilis (I)”; in test [18] (C. albicans) it was “C. albicans (I)”; in test [18] (C. jeikeium), “C. jeikeium (R)”; in test [18] (E. faecalis), “E. faecalis (I)”; in test [18] (MRSA), “MRSA (I)”; in [18] (S. epidermidis), “S. epidermidis (I)”. Moreover, in [18] (S. pneumoniae), the “Organism, effect” value is on record as “S. pneumoniae (I)”.
